How the values were obtained:
Female CFLP mice = test: Anti-hyperglycaemic activity (subcutaneous glucose load, blood glucose curve); type: in vivo; conditions: Dose 0.02 µmol/kg orally as aqueous solution, 6 mice fasted for 24 hours; glucose 1g/kg subcutaneously 30 minutes later; area over the 2 hour period compared with control mice given water
Experimental: Female CFLP mice, weighing approximately 25 g, were fasted for 24 hours prior to the study. The compound under study was administered orally as an aqueous solution to each of 6 mice. 30 minutes later a blood sample (10µl) was obtained from the tail for the analysis of blood glucose. Immediately after taking this blood sample, glucose (1g/kg body weight) was administered subcutaneously to each mouse. 6 mice were given water as a control. Blood samples were then obtained from each mouse at 30 minute intervals for 120 minutes. Compounds that produce a significant (P<0.05) reduction of blood glucose, compared with control mice given water, at any time interval, are considered active. The area under the blood glucose curve over the 2 hour period after the administration of the glucose was calculated for the compound and compared with the value for control animals.

Male Sprague-Dawley rats = test: Effect on Energy Expenditure of Rats; type: in vivo; conditions: Dose 0.2 µmol/kg p.o. in water, rats deprived of food, percentage of the rate of energy expenditure of the rats dosed with water
Experimental: Water was provided ad lib at all times. The compounds were administered orally in water to 3 or 4 rats. A further 4 rats were dosed orally with water. The rats were placed in boxes through which air was drawn and the oxygen content of the air leaving the boxes was measured. The energy expenditure of the rats was calculated for 3 hours and for 21 hours after dosing from the volume of air leaving the boxes and its oxygen content, following the principles described by J.B. de V. Weir, J. Physiol. (London) 109, 1-9 (1949). The results are expressed as a percentage of the rate of energy expenditure of the rats dosed with water.

COC(=O)COc1ccc(C[C@@H](C)NC[C@H](O)c2cccc(Cl)c2)cc1 [Example 1, N-[2-(4-Carbomethoxymethoxyphenyl)-1-(R)-1-methylethyl-2-(R)-2-hydroxy-2-(3-chlorophenyl)ethananine, hemifumarate]
% Reduction in area under Blood Glucose Curve (Female CFLP mice): 51% | Mean Energy Expenditure (0-3h) (Male Sprague-Dawley rats; 3 hours after dosing): 134 percentage | Mean Energy Expenditure (0-21h) (Male Sprague-Dawley rats; 21 hours after dosing): 111 percentage

From patent EP0262785A1, “N-[2-(4-carboxymethoxyphenyl)-1-methylethyl]-2-hydroxy-2-(3-chlorophenyl)ethane amine, the methyl ester, salt and stereoisomeric forms thereof” (BEECHAM GROUP PLC, priority 1986, dated 1988)
